Laboratory results from patent publication US20250129012A1, “ANTI-INFLAMMATORY AND ANALGESIC COMPOUNDS AND USE THEREOF” (JIANGSU ATOM BIOSCIENCE AND PHARMACEUTICAL CO., LTD., priority 2021, published 2025).
Where two headings read alike, the source gives them in different places. Marks after values point to notes of the source that are not given here.

Legend:
[1] = system: gouty arthritis rats (sodium urate, right ankle and knee joint cavities); assay: Pharmacodynamics experiment B on gouty arthritis rats: gait score; assay type: in vivo, SD rats; conditions: for Gait Score: dose 0.6 mg/kg gavage, mean; for Gait versus model group, in words: compounds 0.6 mg/kg, colchicine 0.6 and 1.2 mg/kg
Experimental: (§1) Compounds 12, 16, 19, 30, 34, 36, 38, 40, 44, 48, 49, 52, 58, 69, 83, 98, 102, 119, 121, and 122 were prepared by grinding with 0.5% CMC-Na prior to administration and formulated into suspensions of appropriate concentration (0.12 mg/mL) for gavage, with an administered dose of 0.5 mL/100 g.
(§2) 240 SD rats, males, were acclimatized for one week and weighed 180-220 g. […] The dose of each compound group was 0.6 mg/kg. The compounds in each group were prepared into the corresponding concentration suspension, and the volume of administration was 10 mL/kg.
(§3) 250 mg of sodium urate were added to 9 mL of saline, and 1 mL of Tween-80 solution was added, the resulting mixture was heated and stirred to formulate 10 mL of sodium urate solution. The rats were grasped and fixed, and 0.2 mL of sodium urate solution was injected into the right ankle and knee joint cavities respectively to establish gouty arthritis rat model.
(§4) Before modeling, positive drug and tested compounds were pre-administered for 7 days, once a day, and modeling was performed on day 8, and drug administration by gavage continued for 3 days after modeling.
Gait was scored according to the modified gait grading criteria introduced by Coderre et al. The gait of each rat was observed before and 2 h, 4 h, 8 h, 10 h, 24 h and 48 h after modeling and graded scoring was performed. The gait grading criteria were as follows: 0 point, normal walking; 1 point, slight lameness, the lower limbs were slightly bent; 2 points: moderate lameness, the lower limbs just touched the ground; 3 points, severe lameness, the lower limbs left the ground, and walked on three feet. The mean score of each group was calculated and compared with that of the model group.
(§5) Each experimental data was expressed as the mean, and intergroup comparisons were examined for significance using the ANOVA-Dunnett T-test, with P<0.05 as the significance indicator.

[2] = system: gouty arthritis rats (sodium urate, right ankle and knee joint cavities); assay: Pharmacodynamics experiment B on gouty arthritis rats: ankle swelling rate; assay type: in vivo, SD rats; conditions: Rattus norvegicus, po, read-out: Swelling rate (ankle)
Experimental: as §1, §2, §3, §4
Before modeling and 2 h, 4 h, 8 h, 10 h, 24 h and 48 h after modeling, the circumference of the right ankle joint was measured using a soft ruler or the volume change at the ankle was measured (volumetric method), and the swelling degree and swelling rate of ankle joint were calculated:
Swelling degree (mm)=measured circumference (mm)−baseline circumference (mm)
Swelling rate (%)=swelling degree (mm)/baseline circumference (mm)×100%
as §5

| SMILES | Gait Score ([1]; 2 h) | Gait Score ([1]; 4 h) | Gait Score ([1]; 8 h) | Gait Score ([1]; 10 h) | Gait Score ([1]; 24 h) | Gait Score ([1]; 48 h) | Gait versus model group, in words [1] | change in vivo at 0.6 mg/kg ([2]; 2 h) | change in vivo at 0.6 mg/kg ([2]; 4 h) | change in vivo at 0.6 mg/kg ([2]; 8 h) | change in vivo at 0.6 mg/kg ([2]; 10 h) | change in vivo at 0.6 mg/kg ([2]; 24 h) | change in vivo at 0.6 mg/kg ([2]; 48 h) |
| --- | --- | --- | --- | --- | --- | --- | --- | --- | --- | --- | --- | --- | --- |
| COC(=O)c1cc2c(cc(=O)c1OC)[C@@H](NC(C)=O)CCc1cc(OC)c(OC)c(OC)c1-2 [Compound 40, methyl (S)-7-acetamido-1,2,3,10-tetramethoxy-9-oxo-5,6,7,9-tetrahydrobenzo[a]heptalen-11-carboxylate] | 0 | 0 | 0* | 0* | 0.4 | 0 | significant improvement in gait occurred at different time points | 5.81% | 7.96% | 11.2% | 9.9% | 21.7% | 9.33% |
| COc1cc2c(c(OC)c1OC)-c1cc(I)c(OC)c(=O)cc1[C@@H](NC(C)=O)CC2 [Compound 12, (S)—N-(11-iodo-1,2,3,10-tetramethoxy-9-oxo-5,6,7,9-tetrahydrobenzo[a]heptalen-7-yl)acetamide] | 0 | 0 | 0* | 0* | 0 | 0 | significant improvement in gait occurred at different time points | 10.8% | 16.5% | 18.7% | 31.4% | 22.8% | 15% |
| COc1cc2c(c(OC)c1OC)-c1cc(C)c(OC)c(=O)cc1[C@@H](NC(C)=O)CC2 [Compound 16, (S)—N-(1,2,3,10-tetramethoxy-11-methyl-9-oxo-5,6,7,9-tetrahydrobenzo[a]heptalen-7-yl)acetamide] | 0 | 0.1 | 0* | 0* | 0 | 0 | significant improvement in gait occurred at different time points | 9.71% | 13% | 17.8% | 17.4% | 18.6% | 6.17% |
| CNC(=O)c1ccc2c(cc1=O)[C@@H](NC(=O)C1CC1)CCc1cc(OC)c(OC)c(OC)c1-2 [Compound 102, (S)-7-(3-cyclopropylcarbonylamino)-1,2,3-trimethoxy-N-methyl-9-oxo-5,6,7,9-tetrahydrobenzo[a]heptalen-10-carboxamide] | 0 | 0 | 0.27 | 0.09* | 0 | 0 | – | 14.1% | 13.6% | 14.4% | 19.3% | 16.7% | 9.4% |
